The values that follow come from ChEMBL document CHEMBL1201862, “PubChem BioAssay data set” (2004).

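Compound exposure: 48 hours, 5 concentrations, 96-well plates. GI50 is the concentration that inhibits growth by half.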 The source made the active and inactive calls. Cut-off read from the data, not from the text of the source: active = GI50 up to about 1.1 µM and inactive = higher. Bounds are passed on as bounds.

Holding throughout (assay): NCI-60 cell line screen, 48 h
The subject of assay [1] is 786-0.
The test system of assay [2] is A549.
In assay [3] the test system is BT-549.
The subject of assay [4] is COLO 205.
For assay [5], the system named is EKVX.
Assay [6] deals with HOP-62.
The test system of assay [7] is K562.
Assay [8] deals with MDA-N.
In assay [9] the test system is NCI-H23.
For assay [10], the system named is NCI-H460.
For assay [11], the system named is NCI/ADR-RES.
Assay [12] has as its system OVCAR-3.
In assay [13] the test system is OVCAR-8.
Assay [14] concerns PC-3.
Assay [15] concerns SF-539.
Assay [16] relates to SK-MEL-28.
For assay [17], the system named is SK-MEL-2.
Assay [18] deals with SK-OV-3.
The test system of assay [19] is SNB-75.
Assay [20] has as its system UACC-257.

Take `O=C([O-])C[n+]1ccccc1.c1ccncc1`: the GI50 in assay [1], in assay [2], in assay [3], in assay [4], in [5] and in assay [6] was > 100 µM (inactive) throughout. The GI50 in [7], in [8], in assay [9], in assay [10], in assay [11] and in [12] was > 100 µM (inactive) in each case. The GI50 in assay [13], in assay [14], in assay [15], in assay [16], in assay [17] and in [18] was > 100 µM (inactive) in each case. The GI50 in assay [19] and in assay [20] was > 100 µM (inactive) throughout.
As for `Nc1cc(CO)cc(Nc2c3ccccc3nc3ccccc23)c1`, the GI50 is 16.7 µM (inactive) in [1]; 18.2 µM (inactive) in assay [2]; 14.5 µM (inactive) in [3]; 11.6 µM (inactive) in assay [4]; 16.8 µM (inactive) in assay [5]; 14.7 µM (inactive) in [6]. Besides, the GI50 in [7] was 14.2 µM (inactive); in [8], 20.6 µM (inactive); in [9], 15.9 µM (inactive); in assay [10] it was 25.7 µM (inactive); in [11] it was 17.7 µM (inactive); in [12] it was 18.2 µM (inactive). Moreover, the GI50 in assay [13] is 15.9 µM (inactive); in assay [14] it was 15.5 µM (inactive); in [15], 17.6 µM (inactive); in assay [16], 17.8 µM (inactive); in [17], 14.1 µM (inactive); in assay [18] it was 16 µM (inactive). The GI50 is 15.8 µM (inactive) in assay [19] and 15.1 µM (inactive) in [20].
Consider `COc1cc(-c2cc(=O)c3c(OC)c(OC)c(OC)cc3o2)c(OC)c(OC)c1OC`, for which the GI50 in [1] is > 75 µM (inactive); in [2], > 75 µM (inactive); in assay [3], 51.5 µM (inactive); in assay [4], > 75 µM (inactive); in [5], > 75 µM (inactive); in [6] it was > 75 µM (inactive). For the same molecule, the GI50 in [7] is 39.1 µM (inactive); in assay [8] it was > 75 µM (inactive); in assay [9], > 75 µM (inactive); in assay [10], > 75 µM (inactive); in [11], 36.9 µM (inactive); in assay [12] it was 51.2 µM (inactive). Moreover, the GI50 is > 75 µM (inactive) in [13]; 23.6 µM (inactive) in assay [14]; > 75 µM (inactive) in assay [15]; > 75 µM (inactive) in assay [16]; 45.6 µM (inactive) in assay [17]; > 75 µM (inactive) in assay [18]. For the same molecule, the GI50 in [19] and in assay [20] was > 75 µM (inactive) throughout.
Regarding `C#C[C@]1(O)CC[C@H]2[C@@H]3CCC4=C/C(=N\OCCN5CCCC5)CC[C@]4(C)[C@H]3CC[C@@]21C`, the GI50 was 7.11 µM (inactive) in assay [1]; 15.7 µM (inactive) in assay [2]; 16.3 µM (inactive) in assay [3]; 13.7 µM (inactive) in [4]; 12.9 µM (inactive) in assay [5]; 10.9 µM (inactive) in assay [6]. Moreover, the GI50 in [7] was 5.12 µM (inactive); in assay [8], 3.25 µM (inactive); in assay [9], 12 µM (inactive); in assay [10] it was 17.7 µM (inactive); in assay [11], 9.95 µM (inactive); in assay [12], 10.9 µM (inactive). Further, the GI50 is 17.1 µM (inactive) in assay [13]; 6.28 µM (inactive) in assay [14]; 7.46 µM (inactive) in [15]; 14.9 µM (inactive) in assay [16]; 9.18 µM (inactive) in assay [17]; 19.5 µM (inactive) in assay [18]. For the same molecule, the GI50 is 10.8 µM (inactive) in assay [19] and 8.13 µM (inactive) in assay [20].
With `COc1cc2c3cc1Oc1c(OC)c(OC)cc4c1C(=NCC4)Cc1ccc(cc1)Oc1cc(ccc1O)C[C@H]3N(C)CC2`, the GI50 was 10.4 µM (inactive) in [1]; 37.5 µM (inactive) in [2]; 12.5 µM (inactive) in assay [3]; 13.5 µM (inactive) in [4]; 23.2 µM (inactive) in assay [5]; 22.3 µM (inactive) in assay [6]. In addition, the GI50 in assay [7] was 12.7 µM (inactive); in [8], 16.6 µM (inactive); in assay [9], 19.1 µM (inactive); in assay [10], 15.6 µM (inactive); in assay [11], 13.6 µM (inactive); in [12], 17.7 µM (inactive). Further, the GI50 in [13] was 16 µM (inactive); in assay [14], 13.2 µM (inactive); in assay [15], 14.8 µM (inactive); in assay [16] it was 16.7 µM (inactive); in [17] it was 16.7 µM (inactive); in assay [18], 48.6 µM (inactive). Further, the GI50 in assay [19] was 14.1 µM (inactive); in assay [20] it was 16 µM (inactive).
In the case of `C#CCn1c(=O)c(Cl)cn(/C(=C/C(=O)OCC)C(=O)OCC)c1=O`, the GI50 was 1.98 µM (inactive) in assay [1]; 25 µM (inactive) in assay [2]; 18.5 µM (inactive) in assay [3]; 1.04 µM (active) in [4]; 16.1 µM (inactive) in [5]; 20 µM (inactive) in [6]. In addition, the GI50 in assay [7] was 1.7 µM (inactive); in [8] it was 15.3 µM (inactive); in assay [9], 18.5 µM (inactive); in assay [10] it was 32.4 µM (inactive); in assay [11], 26 µM (inactive); in assay [12], 3.48 µM (inactive). The GI50 in assay [13] is 5.48 µM (inactive); in assay [14], 16.6 µM (inactive); in assay [15] it was 6.11 µM (inactive); in [16], 19 µM (inactive); in [17], 17.4 µM (inactive); in assay [18], 31.6 µM (inactive). Moreover, the GI50 in [19] was 14.7 µM (inactive); in assay [20], 5.07 µM (inactive).
For `COc1c(O)c(O)c2c(c1O)C(=O)c1cc(C)cc(O)c1C2=O`, the GI50 in assay [1] is 36.7 µM (inactive); in [2], 45.9 µM (inactive); in [3], 40.4 µM (inactive); in [4], 24.5 µM (inactive); in assay [5] it was 22.4 µM (inactive); in assay [6] it was 56.5 µM (inactive). Also, the GI50 in assay [7] was 37.4 µM (inactive); in assay [8], 53 µM (inactive); in assay [9] it was 29.2 µM (inactive); in assay [10], 18.7 µM (inactive); in [11] it was 16.7 µM (inactive); in [12], 26.4 µM (inactive). Further, the GI50 in [13] was 20.1 µM (inactive); in assay [14], 31.1 µM (inactive); in [15] it was > 66.5 µM (inactive); in assay [16], 98.6 µM (inactive); in assay [17], > 100 µM (inactive); in assay [18] it was 36.8 µM (inactive). For the same molecule, the values for the GI50 in [19] and in assay [20] were 2.97 µM (inactive) and 48.3 µM (inactive), respectively.
In the case of `C[C@]12CC/C(=N\OCCN3CCCCC3)C=C1CCC1C2CC[C@@]2(C)C1CC[C@]2(C)O` (stereo not given in full), the GI50 is 5.14 µM (inactive) in [1]; 12.2 µM (inactive) in assay [2]; 10 µM (inactive) in assay [3]; 8.17 µM (inactive) in assay [4]; 16.2 µM (inactive) in assay [5]; 15.2 µM (inactive) in [6]. For the same molecule, the GI50 in [7] was 5.26 µM (inactive); in assay [8], 3.32 µM (inactive); in assay [9] it was 13.4 µM (inactive); in assay [10], 5.26 µM (inactive); in assay [11], 5.27 µM (inactive); in [12], 17 µM (inactive). Besides, the GI50 in assay [13] is 11.2 µM (inactive); in [14] it was 10.8 µM (inactive); in assay [15], 7.35 µM (inactive); in assay [16], 11.2 µM (inactive); in assay [17], 13.1 µM (inactive); in assay [18], 16.7 µM (inactive). Besides, the values for the GI50 in assay [19] and in [20] were 7.35 µM (inactive) and 5.57 µM (inactive), respectively.
Regarding `Cc1ccc2nc3sc(=O)sc3nc2c1` [CHINOMETHIONAT], the GI50 in [1] was 15.5 µM (inactive); in [2] it was 16.1 µM (inactive); in [3], 15.3 µM (inactive); in assay [4] it was 13.9 µM (inactive); in assay [5] it was 14.2 µM (inactive); in assay [6] it was 16.6 µM (inactive). For the same molecule, the GI50 in assay [7] was 26.2 µM (inactive); in [8], 17.4 µM (inactive); in [9], 19.4 µM (inactive); in [10], 12.9 µM (inactive); in assay [11] it was 14.8 µM (inactive); in assay [12] it was 14.5 µM (inactive). For the same molecule, the GI50 in assay [13] was 15.3 µM (inactive); in [14], 14.3 µM (inactive); in assay [15], 18.7 µM (inactive); in assay [16], 17.9 µM (inactive); in [17], 14.4 µM (inactive); in [18] it was 19.6 µM (inactive). Further, the GI50 in assay [19] is 19.6 µM (inactive); in assay [20], 16.9 µM (inactive).
